Values belong to the compound of their own block, whether it stands above or below them.
System: 171881-019-R-J1-PDC complex spheroid growth, % test/control
Test: Anticancer human tumor 171881-019-R-J1-PDC patient-derived invasive breast carcinoma cell line growth inhibition [Asc]
Conditions: for IC50: curve of first compound; for viability, T/C: stronger effect = lower value
Method in brief: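 Stromal components (HUVEC and hMSC) are co-assembled with the cancer cells into multicellular spheroids. Drugs are then added singly or paired, at concentrations falling by half-log increments from a clinically achievable maximum, capped at 10 microM without known Cmax.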

[1] = second compound 0.01 µM, first compound 0.0316 µM
[2] = second compound 0.01 µM, first compound 0.1 µM
[3] = second compound 0.01 µM, first compound 0.316 µM
[4] = second compound 0.01 µM, first compound 1 µM
[5] = second compound 0.01 µM, first compound 3.16 µM
[6] = second compound 0.01 µM, first compound 10 µM
[7] = second compound 0.0316 µM, first compound 0.0316 µM
[8] = second compound 0.0316 µM, first compound 0.1 µM
[9] = second compound 0.0316 µM, first compound 0.316 µM
[10] = second compound 0.0316 µM, first compound 1 µM
[11] = second compound 0.0316 µM, first compound 3.16 µM
[12] = second compound 0.0316 µM, first compound 10 µM
[13] = second compound 0.1 µM, first compound 0.0316 µM
[14] = second compound 0.1 µM, first compound 0.1 µM
[15] = second compound 0.1 µM, first compound 0.316 µM
[16] = second compound 0.1 µM, first compound 1 µM
[17] = second compound 0.1 µM, first compound 3.16 µM
[18] = second compound 0.1 µM, first compound 10 µM
[19] = second compound 0.316 µM, first compound 0.0316 µM
[20] = second compound 0.316 µM, first compound 0.1 µM
[21] = second compound 0.316 µM, first compound 0.316 µM
[22] = second compound 0.316 µM, first compound 1 µM
[23] = second compound 0.316 µM, first compound 3.16 µM
[24] = second compound 0.316 µM, first compound 10 µM
[25] = second compound 1 µM, first compound 0.0316 µM
[26] = second compound 1 µM, first compound 0.1 µM
[27] = second compound 1 µM, first compound 0.316 µM
[28] = second compound 1 µM, first compound 1 µM
[29] = second compound 1 µM, first compound 3.16 µM
[30] = second compound 1 µM, first compound 10 µM
[31] = second compound 0.01 µM, first compound 0.00949 µM
[32] = second compound 0.01 µM, first compound 0.03 µM
[33] = second compound 0.01 µM, first compound 0.0949 µM
[34] = second compound 0.01 µM, first compound 0.3 µM
[35] = second compound 0.01 µM, first compound 0.949 µM
[36] = second compound 0.01 µM, first compound 3 µM
[37] = second compound 0.0316 µM, first compound 0.00949 µM
[38] = second compound 0.0316 µM, first compound 0.03 µM
[39] = second compound 0.0316 µM, first compound 0.0949 µM
[40] = second compound 0.0316 µM, first compound 0.3 µM
[41] = second compound 0.0316 µM, first compound 0.949 µM
[42] = second compound 0.0316 µM, first compound 3 µM
[43] = second compound 0.1 µM, first compound 0.00949 µM
[44] = second compound 0.1 µM, first compound 0.03 µM
[45] = second compound 0.1 µM, first compound 0.0949 µM
[46] = second compound 0.1 µM, first compound 0.3 µM
[47] = second compound 0.1 µM, first compound 0.949 µM
[48] = second compound 0.1 µM, first compound 3 µM
[49] = second compound 0.316 µM, first compound 0.00949 µM
[50] = second compound 0.316 µM, first compound 0.03 µM
[51] = second compound 0.316 µM, first compound 0.0949 µM
[52] = second compound 0.316 µM, first compound 0.3 µM
[53] = second compound 0.316 µM, first compound 0.949 µM
[54] = second compound 0.316 µM, first compound 3 µM
[55] = second compound 1 µM, first compound 0.00949 µM
[56] = second compound 1 µM, first compound 0.03 µM
[57] = second compound 1 µM, first compound 0.0949 µM
[58] = second compound 1 µM, first compound 0.3 µM
[59] = second compound 1 µM, first compound 0.949 µM
[60] = second compound 1 µM, first compound 3 µM
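Throughout, for viability, T/C: spheroids exposed to compounds for 7 days.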

Compound: C#Cc1c(F)ccc2cc(O)cc(-c3ncc4c(N5CC6CCC(C5)N6)nc(OCC56CCCN5CC(F)C6)nc4c3F)c12 (stereo not given) + CNC(C)C(=O)NC1CN(S(=O)(=O)c2cccc(S(=O)(=O)N3CCC4CCC(C(=O)NC(c5ccccc5)c5ccccc5)N4C(=O)C(NC(=O)C(C)NC)C3)c2)CCC2CCC(C(=O)NC(c3ccccc3)c3ccccc3)N2C1=O
IC50 (second compound 0.01 µM): > 10 µM | IC50 (second compound 0.0316 µM): > 10 µM | IC50 (second compound 0.1 µM): > 10 µM | IC50 (second compound 0.316 µM): > 10 µM | IC50 (second compound 1 µM): > 10 µM | viability, T/C [1]: 98% | viability, T/C [2]: 116% | viability, T/C [3]: 125% | viability, T/C [4]: 187% | viability, T/C [5]: 254% | viability, T/C [6]: 248% | viability, T/C [7]: 107% | viability, T/C [8]: 107% | viability, T/C [9]: 131% | viability, T/C [10]: 216% | viability, T/C [11]: 261% | viability, T/C [12]: 255% | viability, T/C [13]: 105% | viability, T/C [14]: 122% | viability, T/C [15]: 134% | viability, T/C [16]: 168% | viability, T/C [17]: 247% | viability, T/C [18]: 245% | viability, T/C [19]: 102% | viability, T/C [20]: 109% | viability, T/C [21]: 109% | viability, T/C [22]: 170% | viability, T/C [23]: 214% | viability, T/C [24]: 230% | viability, T/C [25]: 99.3% | viability, T/C [26]: 109% | viability, T/C [27]: 138% | viability, T/C [28]: 170% | viability, T/C [29]: 219% | viability, T/C [30]: 235%

Compound: C=CC(=O)N1CCN(c2nc(=O)n(-c3c(C)ccnc3C(C)C)c3nc(-c4c(O)cccc4F)c(F)cc23)C(C)C1 (stereo not given) + CNC(C)C(=O)NC1CN(S(=O)(=O)c2cccc(S(=O)(=O)N3CCC4CCC(C(=O)NC(c5ccccc5)c5ccccc5)N4C(=O)C(NC(=O)C(C)NC)C3)c2)CCC2CCC(C(=O)NC(c3ccccc3)c3ccccc3)N2C1=O
IC50 (second compound 0.01 µM): > 10 µM | IC50 (second compound 0.0316 µM): > 10 µM | IC50 (second compound 0.1 µM): > 10 µM | IC50 (second compound 0.316 µM): > 10 µM | IC50 (second compound 1 µM): > 10 µM | viability, T/C [1]: 105% | viability, T/C [2]: 94.4% | viability, T/C [3]: 84.8% | viability, T/C [4]: 96% | viability, T/C [5]: 95.7% | viability, T/C [6]: 85.8% | viability, T/C [7]: 110% | viability, T/C [8]: 97.7% | viability, T/C [9]: 97.8% | viability, T/C [10]: 85.7% | viability, T/C [11]: 85.2% | viability, T/C [12]: 80.3% | viability, T/C [13]: 99.2% | viability, T/C [14]: 92.4% | viability, T/C [15]: 95.9% | viability, T/C [16]: 98.6% | viability, T/C [17]: 96% | viability, T/C [18]: 96.2% | viability, T/C [19]: 95.1% | viability, T/C [20]: 95.3% | viability, T/C [21]: 103% | viability, T/C [22]: 107% | viability, T/C [23]: 94% | viability, T/C [24]: 86.8% | viability, T/C [25]: 110% | viability, T/C [26]: 110% | viability, T/C [27]: 86% | viability, T/C [28]: 96.6% | viability, T/C [29]: 96.2% | viability, T/C [30]: 96.8%

Continued, in another order:

IC50 (second compound 0.01 µM): 5.65 µM | IC50 (second compound 0.0316 µM): 5.51 µM | IC50 (second compound 0.1 µM): 5.69 µM | IC50 (second compound 0.316 µM): 5.54 µM | IC50 (second compound 1 µM): 5.41 µM
Compound: C=C(F)C(=O)N1CCN(c2nc(OCC3CCCN3C)nc3c2CCN(c2cccc4cccc(Cl)c24)C3)CC1CC#N (stereo not given) + CNC(C)C(=O)NC1CN(S(=O)(=O)c2cccc(S(=O)(=O)N3CCC4CCC(C(=O)NC(c5ccccc5)c5ccccc5)N4C(=O)C(NC(=O)C(C)NC)C3)c2)CCC2CCC(C(=O)NC(c3ccccc3)c3ccccc3)N2C1=O
viability, T/C [1]: 93.5% | viability, T/C [2]: 91.3% | viability, T/C [3]: 95% | viability, T/C [4]: 101% | viability, T/C [5]: 113% | viability, T/C [6]: 1.9% | viability, T/C [7]: 90% | viability, T/C [8]: 88.8% | viability, T/C [9]: 76.7% | viability, T/C [10]: 112% | viability, T/C [11]: 112% | viability, T/C [12]: 0.82% | viability, T/C [13]: 95.9% | viability, T/C [14]: 97.2% | viability, T/C [15]: 100% | viability, T/C [16]: 104% | viability, T/C [17]: 107% | viability, T/C [18]: 1.02% | viability, T/C [19]: 81.3% | viability, T/C [20]: 91.1% | viability, T/C [21]: 86.1% | viability, T/C [22]: 106% | viability, T/C [23]: 111% | viability, T/C [24]: 2.51% | viability, T/C [25]: 90.3% | viability, T/C [26]: 84.6% | viability, T/C [27]: 86.5% | viability, T/C [28]: 95.5% | viability, T/C [29]: 106% | viability, T/C [30]: 1.17%

IC50 (second compound 0.01 µM): > 3 µM | IC50 (second compound 0.0316 µM): > 3 µM | IC50 (second compound 0.1 µM): > 3 µM | IC50 (second compound 0.316 µM): > 3 µM | IC50 (second compound 1 µM): > 3 µM
Compound: CCN1C(C(=O)NC23CCC(C(=O)O)(CC2)CC3)C(c2cccc(Cl)c2F)C2(C(=O)Nc3cc(Cl)ccc32)C12CCCCC2 (stereo not given) + CNC(C)C(=O)NC1CN(S(=O)(=O)c2cccc(S(=O)(=O)N3CCC4CCC(C(=O)NC(c5ccccc5)c5ccccc5)N4C(=O)C(NC(=O)C(C)NC)C3)c2)CCC2CCC(C(=O)NC(c3ccccc3)c3ccccc3)N2C1=O
viability, T/C [31]: 91% | viability, T/C [32]: 108% | viability, T/C [33]: 117% | viability, T/C [34]: 109% | viability, T/C [35]: 110% | viability, T/C [36]: 138% | viability, T/C [37]: 109% | viability, T/C [38]: 118% | viability, T/C [39]: 104% | viability, T/C [40]: 112% | viability, T/C [41]: 105% | viability, T/C [42]: 138% | viability, T/C [43]: 130% | viability, T/C [44]: 117% | viability, T/C [45]: 104% | viability, T/C [46]: 111% | viability, T/C [47]: 117% | viability, T/C [48]: 132% | viability, T/C [49]: 110% | viability, T/C [50]: 120% | viability, T/C [51]: 91.2% | viability, T/C [52]: 123% | viability, T/C [53]: 99% | viability, T/C [54]: 132% | viability, T/C [55]: 102% | viability, T/C [56]: 110% | viability, T/C [57]: 112% | viability, T/C [58]: 101% | viability, T/C [59]: 121% | viability, T/C [60]: 132%

IC50 (second compound 0.01 µM): > 3 µM | IC50 (second compound 0.0316 µM): > 3 µM | IC50 (second compound 0.1 µM): > 3 µM | IC50 (second compound 0.316 µM): > 3 µM | IC50 (second compound 1 µM): > 3 µM
Compound: Cc1nc(N2CCC3(CC2)COC(C)C3N)c(CO)nc1Sc1ccnc(N)c1Cl (stereo not given) + CNC(C)C(=O)NC1CN(S(=O)(=O)c2cccc(S(=O)(=O)N3CCC4CCC(C(=O)NC(c5ccccc5)c5ccccc5)N4C(=O)C(NC(=O)C(C)NC)C3)c2)CCC2CCC(C(=O)NC(c3ccccc3)c3ccccc3)N2C1=O
viability, T/C [31]: 119% | viability, T/C [32]: 132% | viability, T/C [33]: 192% | viability, T/C [34]: 239% | viability, T/C [35]: 205% | viability, T/C [36]: 165% | viability, T/C [37]: 116% | viability, T/C [38]: 163% | viability, T/C [39]: 214% | viability, T/C [40]: 279% | viability, T/C [41]: 211% | viability, T/C [42]: 164% | viability, T/C [43]: 120% | viability, T/C [44]: 147% | viability, T/C [45]: 196% | viability, T/C [46]: 237% | viability, T/C [47]: 175% | viability, T/C [48]: 155% | viability, T/C [49]: 111% | viability, T/C [50]: 140% | viability, T/C [51]: 203% | viability, T/C [52]: 229% | viability, T/C [53]: 181% | viability, T/C [54]: 147% | viability, T/C [55]: 119% | viability, T/C [56]: 148% | viability, T/C [57]: 183% | viability, T/C [58]: 250% | viability, T/C [59]: 171% | viability, T/C [60]: 142%

Source: PubChem BioAssay AID1963428 (Molecular Pharmacology Branch, DTP, NCI, 2024)
